# From patent US7553979B2, “HSP90-inhibiting zearalanol compounds and methods of producing and using same” (Conforma Therapeutics Corporation, priority 2001, dated 2009)
# Tested on: HER2
# Assay: HER2 inhibition assay (Her-2 degradation by flow cytometry in MCF-7 cells, as manifestation of HSP90 inhibition)
# Type: cell-based
# Conditions: HER2 degradation, commercially acquired compounds (Sigma Aldrich), Table I, read-out: HER2 IC50
# Procedure: MCF-7 cells are seeded in 24 well plates at a density of approximately 30,000 cells/well and allowed to grow for 16 hours in DMEM supplemented with 10% FBS. Drug (a compound as specified in Table I) is then added at a concentration range of 100 μM to 0.01 uM. Cells are incubated for an additional […]. Drug treated cells and untreated control cells are trypsinized, and incubated at room temperature for 15 minutes with anti Her-2 neu Ab conjugated with phycoerythrin (Becton Dickinson, San Jose Calif.; Cat no. 340552) at a concentration of 0.25 ug/ml, or non-specific control IgGl conjugated with phycoerytirin (Becton Dickinson, San Jose Calif.; Cat no. 340761). Samples were analyzed using a FACS Calibur flow cytometer (Becton Dickinson) equipped with Argon-ion laser that which emits 15 mW of 488 nm light for excitation of the phycoerythrin fluorochrome. 10,000 events were collected per sample. A fluorescence histogram was generated and the mean fluorescence intensity (mfi) of each sample was determined using Cellquest software. The background was defined as the mfi generated from cells incubated with control IgG, and was subtracted from each sample stained with the HER-2/neu Ab. Percent degradation of Her-2 was calculated as follows: % Her-2 degradation=(mfi HER-2 sample)/(mfi HER-2 untreated cells)×100
# Compounds of the following formula (constituents as described in Table I) were acquired from Sigma Aldrich (Milwaukee, Wis.) and evaluated for HSP90 inhibition as manifested by HER2 degradation.
# The following compounds were synthesized and evaluated for Her 2 degradation, with the results reflected in Table 3.
row,Structure (SMILES),IC50
1,"C[C@H]1CCCC(=O)CCCCCc2cc(O)cc(O)c2C(=O)O1 [1 (zearalanone), zearalanone, reference compound]",13 µM
2,"C[C@H]1CCCC(=O)CCC/C=C/c2cc(O)cc(O)c2C(=O)O1 [2 (zearalenone), zearalenone, reference compound]",7 µM
3,"C[C@H]1CCC[C@H](O)CCCCCc2cc(O)cc(O)c2C(=O)O1 [3 (α-zearalanol), α-zearalanol, reference compound]",30 µM
4,"C[C@H]1CCC[C@@H](O)CCCCCc2cc(O)cc(O)c2C(=O)O1 [4 (β-zearalanol), β-zearalanol, reference compound]",4 µM
5,"C[C@H]1CCC[C@H](O)CCC/C=C/c2cc(O)cc(O)c2C(=O)O1 [5 (α-zearalenol), α-zearalenol, reference compound]",40 µM
6,"C[C@H]1CCC[C@@H](O)CCC/C=C/c2cc(O)cc(O)c2C(=O)O1 [6 (β-zearalenol), β-zearalenol, reference compound]",1 µM

# Same assay, conditions: synthesized compounds, Table 3, read-out: IC50 (Her 2 degradation)
row,Structure (SMILES),IC50
1,COc1cc(O)c2c(c1)OCCCCC(O)C(O)CCCCOC2=O (stereo not shown) [Example 1],30 µM
2,"COc1cc2c(c(OC(C)=O)c1)C(=O)OCCCCC=CCCCCO2 [Example 2.1, 1-acetoxy-3-methoxy-6,7,8,9,12,13,14,15-octahydro-5,16-dioxa-benzocyclopentadecen-17-one]",10 µM
3,"COc1cc(OC(C)=O)c2c(c1C(C)=O)OCCCCC=CCCCCOC2=O [Example 2.2, 1-acetoxy-3-methoxy-4-acetyl-6,7,8,9,12,13,14,15-octahydro-5,16-dioxa-benzocyclopentadecen-17-one]",40 µM
4,"COc1cc(O)c2c(c1)OCCCCC(=O)CCCCCOC2=O [Example 3.1, 1-hydroxy-3-methoxy-6,7,8,9,12,13,14,15-octahydro-11H-5,16-dioxa-benzocyclopentadecene-10,17-dione]",30 µM
5,"COc1cc(O)c2c(c1)OCCCCCC(=O)CCCCOC2=O [Example 3.2, 1-Hydroxy-3-methoxy-6,7,8,9,12,13,14,15-octahydro-11H-5,16-dioxa-benzocyclopentadecene-11,17-dione]",16 µM
6,"COc1cc(O)c2c(c1)OCCCC(O)C(O)CCCOC2=O (stereo not shown) [Example 4, 1,9,10-Trihydroxy-3-methoxy-6,7,8,9,10,11,12,13-octahydro-5,14-dioxa-benzocyclotridecen-15-one]",12 µM
7,"COc1cc2c(c(OC(C)=O)c1)C(=O)OCCC/C=C\CCCO2 [Example 5.1, (9Z)-1-acetoxy-3-methoxy-6,7,8,11,12,13-hexahydro-5,14-dioxa-benzocyclotridecen-15-one]",13 µM
8,"COc1cc2c(c(OC(C)=O)c1)C(=O)OCCC/C=C/CCCO2 [Example 5.2, (9E)-1-acetoxy-3-methoxy-6,7,8,11,12,13-hexahydro-5,14-dioxa-benzocyclotridecen-15-one]",15 µM
9,"COc1cc2c(c(OC)c1)C(=O)OC(C)CCC(=O)CCC/C=C/2 (stereo not shown) [Example 6, 2,4-dimethoxy-7-methyl-8,9,12,13-tetrahydro-7H,11H-6-oxa-benzocyclotridecene-5,10-dione]",90 µM
10,"COc1cc(O)c2c(c1)/C=C/CCCC(=O)CCC(C)OC2=O (stereo not shown) [Example 7, 4-hydroxy-2-methoxy-7-methyl-8,9,12,13-tetrahydro-7H,11H-6-oxa-benzocyclotridecene-5,10-dione]",60 µM
